Assays:
Assay type in all cases: cell-based
[1] = test system: IKKα/β; experiment: Western blot, IKKα/β protein in cytosolic fraction; conditions: HCT116 cells; 4 at 1 μM
Procedure: (§1) Cytosolic and nuclear extracts were prepared using a Nuclear/Cytosol Fractionation Kit (BioVision Research, USA). Cytosolic extracts (for NF-κBp65, NF-κBp50, COX-2, iNOS, STAT3, c-Myc, Bcl-xl, Nrf2, SOD, GSTP, EGFR, Akt, p-Akt, Keap1, IKKα/β and β-actin) or nuclear extracts (for NF-κBp65, NF-κBp50, STAT3, p-STAT3, Nrf2, p-Nrf2 and lamin) were separated on 7.5%, 10% or 12% SDS–PAGE slab gels. Then, the proteins were transferred to a nitrocellulose Immobilon-P membrane. After blocking for 2 h with 10% skimmed milk, proteins were incubated with primary antibodies against NF-κBp65, NF-κBp50, COX-2, iNOS, STAT3, p-STAT3, c-Myc, Bcl-xl, Nrf2, p-Nrf2, SOD, GSTP, EGFR, Akt, p-Akt, Keap1, IKKα/β, β-actin, and lamin. Alkaline phosphatase (AP)-labeled anti-rabbit IgG, anti-goat IgG, and anti-mouse IgG secondary antibodies (Bio-Rad Laboratories, USA), as well as horseradish peroxidase (HRP)-conjugated anti-mouse IgG (Boster Bio, USA) secondary antibodies were used in the staining reaction. Bands were visualized by the AP Conjugate Substrate Kit NBT/BCIP or the chemiluminescent HRP substrate of the Clarity ECL Kit (Bio–Rad Laboratories, USA). The amount of immunoreactive product in each lane was determined using a ChemiDoc Imaging System (Bio–Rad Laboratories, USA). Values were calculated as relative absorbance units (RQ) per mg of protein and expressed as a percentage of the control.

[2] = test system: NF-κB p65; experiment: Transcription factor ELISA, NF-κB p65 binding to DNA; conditions: DLD-1 cells (context); 1, 4 at 1 μM; 2, 8 at 5 μM; vs control
Procedure: To estimate NF-ΚB (p50 and p65 subunits) STAT3 and Nrf2 activation, enzymatic immunoassays with the Transcription Factor ELISA Kit (TransAM™NF-κB, TransAM™STAT3/TransAM™Nrf2, Active Motif, Carlsbad CA, USA) were used following the manufacturer’s protocol. Briefly, proper consensus-site double-strand oligonucleotides (NF-κB—5′-GGGACTTTCC-3′; STAT3-5’—TTCCCGGAA-3’; Nrf2-5ʹ—[…]-3ʹ) were immobilized on an ELISA plate and incubated for one hour with the nuclear extracts. The activated subunits bound to DNA were recognized with a specific primary antibody and detected with an HRP-conjugated secondary antibody. The number of subunits was determined by spectrophotometry at λ = 450 nm. The number of p50, and p65 subunits, STAT3, as well as the amount of Nrf2 contained in the DNA-binding complex, corresponded to the activated NF-κB, STAT3, or Nrf2 transcription factors.

[3] = test system: COX-2; experiment: COX-2 expression (qRT-PCR mRNA, Western blot protein); conditions: 4 at 1 μM
Procedure: as §1
(§2) Total RNA from cells was isolated with the GeneMatrix Universal DNA/RNA/Protein Purification Kit (EurX, Poland). For the qRT-PCR analyses, the Maxima SYBR Green I/ROX qPCR Master Mix (2×) (Thermo Fisher Scientific, USA) and the thermal cycler LightCycler (Roche, Germany) were used. The protocol started with 5 min of enzyme activation at 95 °C, followed by 40–50 cycles at 95 °C for 15 s, 56 °C for 20 s, 72 °C for 40 s, and final elongation at 72 °C for 5 min. Melting curve analysis was used for amplicon verification. The expression levels of TATA-box-binding protein (TBP) and porphobilinogen deaminase (PBGD) were used to normalize the data. The Pfaffl comparative method was used to calculate fold change. Primers were designed using Beacon Designer software (the sequences of primers used to analyze genes are listed in Table 2 of the supplementary materials).

[4] = test system: STAT3; experiment: Western blot, STAT3 protein level; conditions: 4 at 1 μM
Procedure: as §1

[5] = test system: DLD-1 cells; experiment: Wound healing assay (cell migration); conditions: 24 h, 4 at standard concentration (1 μM), BAY 11-7082 5 µM
Procedure: Cell migration was assessed by the wound healing assay. DLD-1 cells were seeded into 24-well plates (5 × 10^5 cells per well) and were grown overnight to reach confluency. A scratch was performed using a 10 μl tip, wells were rinsed twice with PBS buffer to remove detached cells, and fresh medium with reduced FBS concentration (0.5%) containing the tested compounds was added. Subsequently, representative microscopic photographs of scratch areas were taken by JuLI FL microscope (NanoEntek, South Korea) direct after the addition of compounds and after 24 h. Area covered by cells (%) was assessed using JuLI FL software and the difference in the coverage of the growth area by DLD-1 cells between 0 and 24 h time points was calculated for each well. The experiment was repeated three times. The relative effect of the tested compounds on cell migration was calculated by comparing the difference in cell coverage area between compound-treated cells and DMSO-vehicle control (tested compound [area 24 h − area 0 h] / DMSO-vehicle control [area 24 h − area 0 h]).

[6] = test system: NF-κB p65; experiment: qRT-PCR, NF-κB p65 mRNA; conditions: DLD-1 cells; 5 μM
Procedure: as §2

[7] = test system: p-Nrf2; experiment: Western blot, p-Nrf2 protein in nuclear fraction; conditions: HCT116 line; 5 μM
Procedure: as §1

[8] = test system: Nrf2; experiment: qRT-PCR, Nrf2 mRNA; conditions: 5 at 5 μM
Procedure: as §2

[9] = test system: SOD; experiment: SOD expression (qRT-PCR mRNA, Western blot protein); conditions: HCT116 cells; 5 μM
Procedure: as §1
as §2, with “Primers were designed using Beacon Designer software (the sequences of primers used to analyze genes are listed in Table 2 of the supplementary materials).” left out

[10] = test system: GSTP; experiment: GSTP expression (qRT-PCR mRNA, Western blot protein); conditions: DLD-1 cells; 5 at 5 μM
Procedure: as §1, with “control. […]” for “control.”

[11] = test system: DLD-1 cells; experiment: Cell cycle distribution, PI staining, flow cytometry, DLD-1; conditions: 48 h, BAY 11-7082 5 µM, 5 in higher (doubled) concentration
Procedure: The analysis of the cell cycle distribution was performed by propidium iodide (PI) staining. The addition of RNase A improved the specificity of PI binding to DNA. The Muse Cell Cycle Kit (Luminex, USA) and flow cytometric detection were performed with the Muse Cell Analyzer (Merck, Germany), according to the manufacturer’s protocol. Briefly, cells were seeded (2 × 10^5 cells per well) in 6-well plates and on the following day the analyzed compounds were added. Topotecan (Sigma-Aldrich, USA) was used as a positive control of cell cycle arrest. After 48 h cells were collected by trypsinization, fixed in cold 70% ethanol and stored at –20 °C. Then, fixed cells were collected and stained with PI, subjected to 30 min incubation at room temperature in the dark and analyzed by flow cytometry. Three independent experiments were performed. Data were analyzed by Muse 1.5 Analysis Software (Merck, Germany).

SMILES | IKKα/β, cytosolic fraction [1] | reduction of the binding of the p65 subunit to DNA [2] | COX-2 protein level ([3]; DLD-1 cells, cytosolic fraction) | COX-2 transcription ([3]; DLD-1 cells, 3, 6 at 5 μM) | COX-2 expression, protein level ([3]; HCT116 cells, 2 at 5 μM) | COX-2 expression, transcript level ([3]; HCT116 cells, 2 at 5 μM) | decrease in the nuclear level of STAT3 protein ([4]; DLD-1 cells, 2 at 5 μM) | decrease in the nuclear level of STAT3 protein ([4]; HCT116 cells) | reduction of cell migration rate (wound healing) vs DMSO-treated cells [5] | inhibitory effect on p65 subunit transcription [6] | increase in the nuclear level of p-Nrf2 [7] | increase in Nrf2 transcription ([8]; DLD-1 line) | increase in Nrf2 transcription ([8]; HCT116 line) | levels of SOD mRNA and protein [9] | GSTP expression and protein levels [10] | cell cycle distribution (in words) [11]
COc1cc(C(=O)/C=C/c2cccc(SC)c2)cc(Br)c1OC [chalcone 4] | inactivation | 21% | reduced COX-2 protein levels | statistically significant reduction | reduction of COX-2 expression | reduction of COX-2 expression | 21% | 22% | approximately 15% |  |  |  |  |  |  | 
COc1cc(/C=C/C(=O)c2cc(Br)c(SC)c(OC)c2)ccc1SC [chalcone 5] |  |  |  |  |  |  |  |  |  | most potent inhibitory effect | 85% | 77% | 45% | increased levels of SOD mRNA and protein | significantly increased GSTP expression and protein levels | slightly enriching S phase

Reference: article PMC9436958, “The synthesis of novel thioderivative chalcones and their influence on NF-κB, STAT3 and NRF2 signaling pathways in colorectal cancer cells” (Scientific Reports, 2022)
